Where no end group is shown, it is not given here.
Tested on: filter-sterile supernatant of Rhodanobacter R179 (secreted peptidase(s))
Test: Peptide quantification by mass spectrometry after incubation in cell-free supernatant of Rhodanobacter R179
Type: in vitro ADME
Settings: for peptide detected by mass spectrometry after incubation in supernatant of the R179 dssAB mutant: filter-sterile supernatant of dssAB mutant cultivated in XVM2 (OD600 = 0.4); for peptide detected by mass spectrometry after incubation in supernatant of the R179 dssAB mutant / peptide detected by mass spectrometry after incubation in supernatant of wild-type R179: LC-MS MS1 peak area; for peptide detected by mass spectrometry after incubation in supernatant of wild-type R179: filter-sterile supernatant of wild-type R179 cultivated in XVM2 minimal medium (OD600 = 0.4), light chamber, n = 3 culture supernatants; for Log10(total_area_MS1) / percent_rel_axenic: incubation 1h; for Log10(total_area_MS1): MS1 precursor area; for percent_rel_axenic: peptide relative to axenic; for Total_area MS1 of identified AtPep1 cleavage product (acetylated […]): 1 µM AtPep1, LC-MS [M+2H]; for Total_area MS1 (intact flg22): 1 µM, LC-MS [M+2H]
Protocol: Elicitors were also supplemented into the medium prior to solidification at a final concentration of 1 µM. The flg22 ([…]) and AtPep1 ([…]) peptides were synthesized by EZbiolab. elf18^R179 (Ac-[…]) and elf18 (Ac-[…]) were synthesized by GenScript and EZbiolab, respectively. For inoculation with the bacterial supernatant, bacteria were cultivated overnight in XVM2 minimal medium (20 mM NaCl, 10 mM (NH4)2SO4, 5 mM MgSO4, 1 mM CaCl2, 0.16 mM KH2PO4, 0.32 mM K2HPO4, 0.01 mM FeSO4, 10 mM fructose, 10 mM sucrose, 0.03% Casamino acids, pH 6.7)[76] to a final concentration of OD600 = 0.4. Bacteria were pelleted by centrifugation (11,600 g, 2 min), and the supernatant was sterile-filtered using filter units with MF-Millipore membrane (0.22 µm; Millex). The supernatant was incubated in boiling water for 30 min for heat treatment. Then, 25 ml of 1× MS with 20 g l^−1 Bacto Agar was mixed with 25 ml of supernatant prior to medium solidification and poured into square petri dishes. Sterilized seeds were placed on solidified agar in square petri dishes and vertically incubated for 14 days.
Bacterial supernatants were prepared as described in ‘Agar-based cultivation of axenic plants and co-cultivation with bacteria, bacterial supernatants and elicitors’. Here, additionally, the peptides dRGF1 (DYSNPGHHP-Hyp-RHN) and PSY1 (D-Y(SO3H)-[…]-Hyp-Hyp-S) synthesized by Scilight Peptide were incubated for 1 h with 1 µM of peptides in a plant cultivation light chamber (day-light condition; see ‘Plant cultivation conditions’), and the samples were frozen at −20 °C until further processing. For the investigation of AtPep1 degradation, the AtPep1 peptide was first modified by acetylation (six to seven times). To this end, 100-µl aliquots of peptides were treated with 10 µl of NHS acetate solution (1 M NHS acetate in 50% ACN/PBS) and incubated for 30 min with shaking. The reaction was quenched by the addition of 100 µl of 100 mM Tris-HCl (pH 8.5) and incubated for 10 min. For comparison of the non-acetylated peptides with the above-described modified AtPep1 peptides, aliquots of the non-acetylated peptides were processed as described above, but without the modifying NHS reaction. To this end, 100-µl aliquots of the sample were mixed with 100 µl of PBS buffer (137 mM NaCl, 2.7 mM KCl, 10 mM Na2HPO4, 1.8 mM KH2PO4; pH 7.4). The samples were then further diluted with 100 µl of 100 mM Tris-HCl (pH 8.5) and incubated for 10 min. All samples were acidified with 5 µl of TFA and desalted using StageTips with C18 Empore disk membranes (3M)[109]. The samples were dried in a vacuum evaporator and dissolved in 10 µl of 2% ACN (0.1% TFA for analysis).
The samples were analysed using an EASY-nLC 1200 (Thermo Fisher) coupled to a QExactive Plus mass spectrometer (Thermo Fisher). Peptides were separated on 16-cm frit-less silica emitters (New Objective, 75 µm inner diameter), packed in-house with reversed-phase ReproSil-Pur C18 AQ 1.9 µm resin (Dr. Maisch). Peptides were loaded on the column and eluted for 50 min using a segmented linear gradient of 5% to 95% solvent B (0 min, 5% B; 0–5 min, 15% B; 5–35 min, 50% B; 35–45 min, 95% B; 45–50 min, 95% B) (solvent A: 0% ACN, 0.1% FA; solvent B: 80% ACN, 0.1% FA) at a flow rate of 300 nl min^−1. Mass spectra were acquired in data-dependent acquisition mode with a TOP10 method. Mass spectrometry spectra were acquired in the Orbitrap analyser with a mass range of 300–1,500 m/z at a resolution of 70,000 full width at half maximum (FWHM) and a target value of 3 × 10^6 ions. Precursors were selected with an isolation window of 1.3 m/z. Higher-energy collision dissociation (HCD) fragmentation was performed at a normalized collision energy of 25. Tandem mass spectrometry (MS/MS) spectra were acquired with a target value of 5 × 10^5 ions at a resolution of 17,500 FWHM, a maximum injection time of 85 ms and a fixed first mass of 100 m/z. […]

[1] = R179 dssAB mutant supernatant, XVM2 medium, replicate 1
[2] = R179 dssAB mutant supernatant, XVM2 medium, replicate 2
[3] = R179 dssAB mutant supernatant, XVM2 medium, replicate 3
[4] = R179 wt supernatant, XVM2 medium, replicate 1
[5] = R179 wt supernatant, XVM2 medium, replicate 2
[6] = R179 wt supernatant, XVM2 medium, replicate 3
[7] = axenic XVM2 medium control, replicate 1
[8] = axenic XVM2 medium control, replicate 2
[9] = axenic XVM2 medium control, replicate 3
[10] = supernatant of wt R179 in XVM2 (OD600 = 0.4), 1h, replicate 1
[11] = supernatant of wt R179 in XVM2 (OD600 = 0.4), 1h, replicate 2
[12] = supernatant of wt R179 in XVM2 (OD600 = 0.4), 1h, replicate 3

Substance	peptide detected by mass spectrometry after incubation in supernatant of the R179 dssAB mutant (1 µM peptide, 1 h, n = 3)	peptide detected by mass spectrometry after incubation in supernatant of wild-type R179 (1 µM peptide, 1 h)	Log10(total_area_MS1) [1]	Log10(total_area_MS1) [2]	Log10(total_area_MS1) [3]	percent_rel_axenic [1]	percent_rel_axenic [2]	percent_rel_axenic [3]	Log10(total_area_MS1) [5]	Log10(total_area_MS1) [6]	percent_rel_axenic [4]	percent_rel_axenic [5]	percent_rel_axenic [6]	Log10(total_area_MS1) [7]	Log10(total_area_MS1) [8]	Log10(total_area_MS1) [9]	percent_rel_axenic [7]	percent_rel_axenic [8]	percent_rel_axenic [9]	other results
ATKVKAKQRGKEKVSSGRPGQHN [AtPep1]	depleted	depleted	6.423	6.556	5.255	0.0095%	0.0129%	0.0006%	5.86	6.66	0.086%	0.0026%	0.0164%	10.4254	10.4615	10.4458	95.7106%	103.993%	100.296%	traces of AtPep1 detected after incubation in R179 supernatants (1 µM peptide, 1 h, R179 supernatant in XVM2, AtPep1 acetylated before LC-MS): < 0.01%; Log10(total_area_MS1) [4]: 7.379; Total_area MS1 of identified AtPep1 cleavage product (acetylated […]) (supernatant of R179 dssAB mutant in XVM2 (OD600 = 0.4), 1h, replicate 1): 2.38E+09; Total_area MS1 of identified AtPep1 cleavage product (acetylated […]) (supernatant of R179 dssAB mutant in XVM2 (OD600 = 0.4), 1h, replicate 2): 1.79E+09; Total_area MS1 of identified AtPep1 cleavage product (acetylated […]) (supernatant of R179 dssAB mutant in XVM2 (OD600 = 0.4), 1h, replicate 3): 2.15E+09; Total_area MS1 of identified AtPep1 cleavage product (acetylated […]) [10]: 1.79E+09; Total_area MS1 of identified AtPep1 cleavage product (acetylated […]) [11]: 1.66E+09; Total_area MS1 of identified AtPep1 cleavage product (acetylated […]) [12]: 1.89E+09
Ac-SKEKFERTKPHVNVGTIG [elf18]	depleted	depleted	0	0	0	0%	0%	0%	0	0	0%	0%	0%	10.4989	10.552	10.527	93.8398%	106.053%	100.108%	–
QRLSTGSRINSAKDDAAGLQIA [flg22]	efficient and rapid (1 h) proteolytic degradation	efficient and rapid (1 h) proteolytic degradation	0	0	0	0%	0%	0%	0	0	0%	0%	0%	–	8.543	8.745	–	75.7327%	120.41%	peptide detected by mass spectrometry after incubation in heat-treated supernatant of wild-type R179 (1 µM peptide, 1 h, supernatant boiled 30 min, XVM2, LC-MS MS1 peak area, n = 3): detected; Total_area MS1 (intact flg22) (axenic XVM2 medium, 1h, replicate 2): 3.04E+08; Total_area MS1 (intact flg22) (axenic XVM2 medium, 1h, replicate 3): 4.20E+08; Total_area MS1 (intact flg22) (heat-treated (HK-wt) supernatant of wt R179 in XVM2, 1h, replicate 1): 1.96E+09; Total_area MS1 (intact flg22) (heat-treated (HK-wt) supernatant of wt R179 in XVM2, 1h, replicate 2): 3.13E+09; Total_area MS1 (intact flg22) (heat-treated (HK-wt) supernatant of wt R179 in XVM2, 1h, replicate 3): 9.82E+08; Total_area MS1 (intact flg22) [10]: 0.00E+00; Total_area MS1 (intact flg22) [11]: 0.00E+00; Total_area MS1 (intact flg22) [12]: 0.00E+00
